According to US8044082B2, “N-phenylacetamide inhibitors of the enzyme SOAT-1 and pharmaceutical/cosmetic compositions comprised thereof” (Galderma Research & Development, priority 2007, dated 2011):

SMILES	melting point [°C]
COc1ccccc1N1C(=O)N(CC(=O)Nc2c(C(C)C)cccc2C(C)C)C(=O)C12CCCCC2 [compound (I.33), N-(2,6-Diisopropylphenyl)-2-[1-(2-methoxyphenyl)-2,4-dioxo-1,3-diazaspiro[4.5]dec-3-yl]acetamide]	229
COc1ccc(N2C(=O)N(CC(=O)Nc3c(C(C)C)cccc3C(C)C)C(=O)C23CCCCC3)cc1 [compound (I.8), N-(2,6-Diisopropylphenyl)-2-[1-(4-methoxyphenyl)-2,4-dioxo-1,3-diazaspiro[4.5]dec-3-yl]acetamide]	193
CC(C)c1cccc(C(C)C)c1NC(=O)CN1C(=O)N(c2ccc(F)cc2)C2(CCCC2)C1=O [compound (I.17), N-(2,6-Diisopropylphenyl)-2-[1-(4-fluorophenyl)-2,4-dioxo-1,3-diazaspiro[4.4]non-3-yl]acetamide]	268
Cc1cc(C(=O)N(C)C2CCCCC2)cc(C)c1NC(=O)CN1C(=O)N(c2ccccc2)C2(CCCCC2)C1=O [compound (I.3), N-(Cyclohexyl)-4-[2-(2,4-dioxo-1-phenyl-1,3-diazaspiro[4.5]dec-3-yl]-acetylamino]-3,5,N-trimethylbenzamide]	177
CC(C)c1cccc(C(C)C)c1NC(=O)CN1C(=O)N(Cc2ccccc2)C2(CCCCC2)C1=O [compound (I.22), 2-(1-Benzyl-2,4-dioxo-1,3-diazaspiro[4.5]dec-3-yl)-N-(2,6-diisopropyl-phenyl)acetamide]	214
CCCCc1ccc(N2C(=O)N(CC(=O)Nc3c(CC)cccc3CC)C(=O)C23CCCCC3)cc1 [compound (I.56), 2-[1-(4-Butylphenyl)-2,4-dioxo-1,3-diazaspiro[4.5]dec-3-yl]-N-(2,6-diethyl-phenyl)acetamide]	171
CC(C)c1cccc(C(C)C)c1NC(=O)CN1C(=O)N(c2cccc(F)c2)C2(CCCCC2)C1=O [compound (I.11), N-(2,6-Diisopropylphenyl)-2-[1-(3-fluorophenyl)-2,4-dioxo-1,3-diazaspiro[4.5]dec-3-yl]acetamide]	234
CC(C)c1cccc(C(C)C)c1NC(=O)CN1C(=O)N(c2ccccc2)C2(CCCCCC2)C1=O [compound (I.9), N-(2,6-Diisopropylphenyl)-2-(2,4-dioxo-1-phenyl-1,3-diazaspiro[4.6]undec-3-yl)acetamide]	230
CCc1cccc(CC)c1NC(=O)CN1C(=O)N(c2ccc(C)cc2)C2(CCCCC2)C1=O [compound (I.48), N-(2,6-Diethylphenyl)-2-(2,4-dioxo-1-p-tolyl-1,3-diazaspiro[4.5]dec-3-yl)-acetamide]	214
CCCCCCCCCN1C(=O)N(CC(=O)Nc2c(C(C)C)cccc2C(C)C)C(=O)C12CCCCC2 [compound (I.43), N-(2,6-Diisopropylphenyl)-2-(1-nonyl-2,4-dioxo-1,3-diazaspiro[4.5]dec-3-yl)acetamide]	183
CCc1cccc(CC)c1NC(=O)CN1C(=O)N(c2ccc(OCc3ccccc3)cc2)C2(CCCCC2)C1=O [compound (I.62), 2-[1-(4-Benzyloxyphenyl)-2,4-dioxo-1,3-diazaspiro[4.5]dec-3-yl]-N-(2,6-di-ethylphenyl)acetamide]	184
Cc1ccc(N2C(=O)N(CC(=O)Nc3c(C)cccc3C(C)(C)C)C(=O)C23CCCCC3)cc1 [compound (I.53), N-(2-tert-Butyl-6-methylphenyl)-2-(2,4-dioxo-1-p-tolyl-1,3-diazaspiro[4.5]dec-3-yl)acetamide]	120
CC(C)c1cccc(C(C)C)c1NC(=O)CN1C(=O)N(c2ccccc2)C2(CCCCC2)C1=O [compound (I.2), N-(2,6-Diisopropylphenyl)-2-(2,4-dioxo-1-phenyl-1,3-diazaspiro[4.5]dec-3-yl)acetamide]	245
CCCCCCCN1C(=O)N(CC(=O)Nc2c(C(C)C)cccc2C(C)C)C(=O)C12CCCCC2 [compound (I.30), N-(2,6-Diisopropylphenyl)-2-(1-heptyl-2,4-dioxo-1,3-diazaspiro[4.5]dec-3-yl)acetamide]	208
